In patent US20050090397A1, “Herbicides made from substituted aryl ketones” (priority 2001, published 2005):

Tests used:
Type in all cases: in vivo
[1] = system: ROT/N; experiment: Herbicidal damage to weed ROT/N (Tables B1, B3); settings: application rate 50 g/ha
[2] = system: Lindernia pyxidari; experiment: Greenhouse test in transplanted paddy rice: herbicidal damage to weed; settings: applied to water surface, rated 3 weeks after application vs untreated control
Source text: (§1) To produce a preparation of active compound, 1 part by weight of an active compound combination according to the invention is mixed with the stated amount of solvent and, after addition of the stated amount of the emulsifier, diluted with water to the desired concentration.
(§2) Vessels for planting (500 cm^2) are filled with soil from a rice field, and in each case 3 rice plants (cultivar: Nipponbare, 2-3-leaf stage, height: about 15 cm) are planted into the middle of vessels for planting. Into the same vessels for planting, seeds are sown. The soil in the vessels is kept moist. After two days, each vessel for planting is flooded to a water depth of 2-3 cm.
(§3) Five days after the rice plants were transplanted, the amount of active compound is, in the preparation described above, applied to the surface of the water in the vessels for planting using a pipette. The water depth in the vessels for planting is maintained at 2-3 cm.
(§4) 3 weeks after the application of active compound, the efficacy is rated in % damage in comparison to the untreated control.
(§5) Active compounds, application rates and results are shown in Table A1 below, the abbreviations used in the table having the following meanings: • (I-65) N-[2,6-dichloro-3-[2,6-dioxocyclohexyl)-carbonyl]-phenyl]pyrrolidone-1-carboxamide • (I-2) N′-[2,6-dichloro-3-[(2,6-dioxo-cyclohexyl)-carbonyl]-phenyl]-N-methoxy-N-methyl-urea • (A) fentrazamide

[3] = system: rice plants (cultivar: Nipponbare); experiment: Greenhouse test in transplanted paddy rice: crop damage; settings: rated 3 weeks after application
Source text: as §1, §2, §3, §4, §5

[4] = system: DOPJU; experiment: Herbicidal damage to weed DOPJU (Table B2); settings: application rate 50 g/ha
Source text: as §1, §2, §3, §4, §5

With `CCC1(CC2(c3cccc(Cl)c3)CO2)C(=O)c2ccccc2C1=O` (stereo not shown) [B, 2-[2-(3-chloro-phenyl)-oxiranyl-methyl]-2-ethyl-1H-indene-1,3 (2H)-dione] the “Damage (to ROT/N) (%)” value ([1]; Table B3) was 2%.
For `CON(C)C(=O)Nc1c(Cl)ccc(C(=O)C2C(=O)CCCC2=O)c1Cl` [Example I-2, N′-[2,6-dichloro-3-[(2,6-dioxo-cyclohexyl)-carbonyl]-phenyl]-N-methoxy-N-methyl-urea], the “Damage to Lindernia pyxidari (%)” value ([2]; application rate 200 g/ha) was 60% and the “Damage to rice (%)” value ([3]; application rate 200 g/ha) was 0%.
With `CCN(C(=O)n1nnn(-c2ccccc2Cl)c1=O)C1CCCCC1` [(A), 4-(2-chloro-phenyl)-N-cyclohexyl-N-ethyl-4,5-dihydro-5-oxo-1H-tetrazol-1-carboxamide] the “Damage to Lindernia pyxidari (%)” value ([2]; application rate 150 g/ha) was 70%, the “Damage to rice (%)” value ([3]; application rate 150 g/ha) was 0% and the “Damage (to ROT/N) (%)” value ([1]; Table B1) was 60%. For the same molecule, the “Damage (to DOPJU) (%)” value [4] was 50%.
